{"source": "patent US20090246186A1", "about": "“AGENT FOR IMPROVING NERVOUS SYSTEM CELL FUNCTIONS” (KANEKA CORPORATION, priority 2006, published 2009)", "key": {"rat": {"test_system": "rat", "conditions": "1.2 g/kg/day for 52 consecutive weeks; cited from earlier work"}, "[1]": {"test_system": "model mouse with Parkinson's disease", "conditions": "cited from earlier work"}, "SAMP8 mice": {"test_system": "SAMP8 mice", "assay": "Step-through passive avoidance learning experiment", "format": "in vivo, mouse", "description": "Aging promoted mouse (SAMP8,3-week-old, male, each group N=8−10) models were divided into a group given a feed (CE-2, manufactured by (LEA Japan, Inc.) containing 0.5% of reduced coenzyme Q10 (containing about 1% oxidized coenzyme Q10) obtained in Production Example 1 and a group given a basic feed (CE-2, manufactured by CLEA Japan, Inc.) alone as a control group. The both groups were allowed a free access to the feed. The dose of reduced coenzyme Q10 obtained from the ingested amount of the feed and the body weight of the animal generally corresponded to 300-500 mg/kg/day.\nThe effect of reduced coenzyme Q for the learning and memory function was examined by a step-through passive avoidance learning experiment. When SAMP8 mice were placed in a light compartment of an apparatus consisting of two light and dark compartments, they enter the dark compartment since mouse prefers darkness. The mice were taught that the dark compartment was dangerous by applying an electric current (0.5 mA) for 3 sec from the floor of the dark compartment (acquisition trial). […]\nTo be specific, the mice were placed in the same apparatus again, and the time of stay in the light compartment was measured, based on which the learning, memory function of the mice was compared between with and without ingestion of reduced coenzyme Q in the present invention. […]"}, "PC12 cells": {"test_system": "PC12 cells", "assay": "Nerve cell protection on hydrogen peroxide-induced cell death (intracellular ATP amount)", "format": "cell-based", "conditions": "25, 50, 100 μg/ml for 24 hr, then 0.06 mM hydrogen peroxide; compared with oxidized coenzyme Q10", "protocol": "As one of the causes of the nerve cell death, active oxygen species produced for various reasons is known. Therefore, a cell death protecting action of reduced coenzyme Q10 when PC12 cells are exposed to hydrogen peroxide was examined. PC12 cells were cultured in Dulbecco's Modified Eagle Medium containing 200 units of penicillin, 0.1 μg/ml streptomycin, and 10% fetal bovine serum under 37° C., 5% CO2 conditions. The cells were plated to a 96 well microplate at 1×10^4 cells/well, and cultured under the conditions of 37° C., 5% CO2. After 24 hr, the medium was removed and substituted with Dulbecco's Modified Eagle Medium containing 200 units of penicillin, […] streptomycin and 0.5% fetal bovine serum and supplemented with reduced coenzyme Q10 and oxidized coenzyme Q10 (25, 50, 100 μg/ml). After 24 hr, the medium was removed, and the cells were exposed to hydrogen peroxide so that the final concentration in the same medium would be 0.06 mM 24 hr later, and cultured under the conditions of 37° C., 5% CO2 for 15 min. The cells were washed 3 times with PBS, and the intracellular ATP amount was measured using an ATP quantify kit (Perkin Elmer) and compared."}, "[2]": {"test_system": "normal rat or spontaneously diabetic rat", "conditions": "cited from earlier work"}}, "data": [{"compound": "COC1=C(OC)C(=O)C(C/C=C(\\C)CC/C=C(\\C)CC/C=C(\\C)CC/C=C(\\C)CC/C=C(\\C)CC/C=C(\\C)CC/C=C(\\C)CC/C=C(\\C)CC/C=C(\\C)CCC=C(C)C)=C(C)C1=O", "note": "[Oxidized coenzyme Q10, oxidized coenzyme Q10]", "values": [{"measurement": "toxicity", "setting": "rat", "value": "no toxicity was observed"}]}, {"compound": "oxidized coenzyme Q", "values": [{"measurement": "symptom improving effect", "setting": "[1]", "value": "shows a symptom improving effect"}]}, {"compound": "COc1c(O)c(C)c(C/C=C(\\C)CC/C=C(\\C)CC/C=C(\\C)CC/C=C(\\C)CC/C=C(\\C)CC/C=C(\\C)CC/C=C(\\C)CC/C=C(\\C)CC/C=C(\\C)CCC=C(C)C)c(O)c1OC", "note": "[reduced coenzyme Q10]", "values": [{"measurement": "response latency time (passive avoidance test)", "setting": "SAMP8 mice; feed containing 0.5% reduced coenzyme Q10 (300-500 mg/kg/day), after 8 weeks (11-week-old), vs control group", "value": "the number of mouse that showed a prolonged response latency time increased"}, {"measurement": "learning and memory disorder-improving effect", "setting": "SAMP8 mice; short time administration, feed containing 0.5% reduced coenzyme Q10, 8 weeks", "value": "a learning and memory disorder-improving effect was observed"}, {"measurement": "cell death of PC12 cells induced by hydrogen peroxide", "setting": "PC12 cells", "value": "significantly prevented"}, {"measurement": "tissue degeneration caused by oxidative stress in the pancreas", "setting": "[2]; diabetic rat", "value": "suppress"}, {"measurement": "amount of 8-hydroxy deoxyguanosine (oxidization marker) in urine", "setting": "[2]; normal rat or spontaneously diabetic rat", "value": "decrease"}]}]}
